Consider 68 compounds from the supplement of paper PMC3974653.

Molecules are shown by their SMILES. Where a name gives a salt, the structure may show the parent alone.

For this experiment, the system named is MTT (mouse pheochromocytoma). The experiment is described as follows: IC50 of cell viability (ATP content). The following applies: (24 or 48 h). Put shortly: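 MTT mouse pheochromocytoma cells, cultured overnight at 37°C, 5% CO2 in DMEM with 5% FBS and 1% horse serum, were exposed in white 1536-well plates to library compounds in DMSO at final 0.5 nM to 46 µM (8 concentrations) for 24 or 48 hrs. CellTiter-Glo luminescence was normalised to positive-control (100%) and DMSO (0%) wells. A four-parameter logistic fit gave the IC50.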

Take `O=C1OC(c2ccc(O)c([S+](=O)([O-])O)c2)(c2ccc(O)c([S+](=O)([O-])O)c2)c2c(Br)c(Br)c(Br)c(Br)c21` (stereo not drawn) [SULFOBROMOPHTHALEIN SODIUM]: the “IC50 of cell viability” value was greater than 46 µM. As to `CNC1CC(N)[C@H](O)[C@@H](O[C@@H]2OC(CO)C3OC4(OC(C(N)CO)C(O)C(O)C4O)O[C@@H]3[C@H]2O)C1O` (stereo partly drawn) [HYGROMYCIN B], the “IC50 of cell viability” value was greater than 46 µM.

On to `C/C(=N\O)c1ccc(OCC(=O)N2CCCCC2)cc1` [Pifoxime], for which the “IC50 of cell viability” value is greater than 46 µM. Consider `CCOC(=O)N1CCC(=C2c3ccc(Cl)cc3CCc3cccnc32)CC1` [LORATADINE], for which the “IC50 of cell viability” value was greater than 46 µM. In the case of `CC(=O)Nc1c(I)c(C(=O)N[C@H]2[C@H](O)[C@H](O)[C@H](CO)O[C@@H]2O)c(I)c(N(C)C(C)=O)c1I` [Metrizamide], the “IC50 of cell viability” value is greater than 46 µM. Consider `CCCCCCCCCCCCCCCCCCOC[C@H](COP(=O)([O-])OCC[N+](C)(C)C)OC` [ET-18-OCH3], for which the “IC50 of cell viability” value is greater than 46 µM. The figure for `C[C@@H](C(=O)O)c1ccc(C(=O)c2ccccc2)s1` [Tiaprofenic acid] is greater than 46 µM. Under `CC(=O)CC(C1=CC=CC=C1)C/2=C(O)/C3=CC=CC=C3OC2=O` (stereo not drawn) [WARFARIN] stands greater than 46 µM; under `O[C@@](CCN1CCCC1)(c1ccccc1)C1CCCCC1` [Procyclidine hydrochloride], greater than 46 µM; under `CC(=O)Nc1ccc(/C=N/NC(N)=S)cc1` [THIOACETAZONUM], greater than 46 µM. The figure for `CCCCCCCCCCCCCCCC[N+](C)(C)CCN(Cc1ccc(OC)cc1)c1ncccn1` [Thonzonium bromide] is greater than 46 µM; for `O=C(CCl)c1ccc(Oc2ccc(C(=O)CCl)cc2)cc1` [Clofenoxyde] it is greater than 46 µM; for `CC(=O)NC\1=N\C(=O)N(\C=C1)C2COC(COC(=O)C3=CC=CC=C3)O2` (stereo not drawn) it is greater than 46 µM. For `CCCC(=O)O[C@@]1([C@@H](C)C[C@H]2[C@@H]3CCC\4=C\C(=O)\C=C/[C@@]4(C)[C@@]3(F)[C@H](O)C[C@]12C)C(=O)COC(=O)CC` [Antebate], the “IC50 of cell viability” value was greater than 46 µM. Turning to `Cc1ccccc1C(=O)Nc1ccc(C(=O)N2CCCC(O)c3cc(Cl)ccc32)c(C)c1` (stereo not drawn) [TOLVAPTAN], the “IC50 of cell viability” value was greater than 46 µM. In the case of `CC(C)(C)C(=O)C(Oc1ccc(Cl)cc1)n1ccnc1` (stereo not drawn) [Climbazole], the “IC50 of cell viability” value was greater than 46 µM. For the compound `CCOC(=O)C(\C#N)=C(/C1=CC=CC=C1)C2=CC=CC=C2` [Etocrylene], the “IC50 of cell viability” value is greater than 46 µM. In the case of `COc1cc(N[C@@H](C)CCCN)c2ncccc2c1` [Primaquine diphosphate], the “IC50 of cell viability” value was greater than 46 µM. On to `Cc1nnc2n1-c1ccc(Cl)cc1C(c1ccccc1)=NC2` [alprazolam], for which the “IC50 of cell viability” value was greater than 46 µM. Take `Cc1cnc(NC(=O)C2C(=O)c3ccccc3[S+](=O)([O-])N2C)s1` (stereo not drawn) [Meloxicam]: the “IC50 of cell viability” value was greater than 46 µM.

Turning to `CC[C@]1(C)CC(=O)NC1=O` [Ethosuximide], the “IC50 of cell viability” value was greater than 46 µM. For `CC1=C(CC(=O)O)c2cc(F)ccc2/C1=C\c1ccc([S+](C)[O-])cc1` (stereo not drawn) [Sulindac], the “IC50 of cell viability” value was greater than 46 µM. As for `COCCOCCO` [Diethylene glycol monomethyl ether], the “IC50 of cell viability” value was greater than 46 µM. As for `CC(C)(C)NC[C@H](O)c1cc(O)cc(O)c1` [Terbutaline hemisulfate], the “IC50 of cell viability” value was greater than 46 µM. Take `CCCCCCCCCCCCCCC[C@H](O)[C@H](N)CO` (racemic) [DL-erythro-Dihydrosphingosine]: the “IC50 of cell viability” value was greater than 46 µM.

Regarding `Cc1cccc(C)c1NC(=O)CN1CCCCCC1` [PINCAINIDUM], the “IC50 of cell viability” value is greater than 46 µM. On to `CCOC(=O)c1ccccc1C(=O)OCC` [Diethyl phthalate], for which the “IC50 of cell viability” value was greater than 46 µM. As for `O=[N+]([O-])c1ccccc1` [Nitrobenzene], the “IC50 of cell viability” value is greater than 46 µM. Take `O=C(NC1CCN(CCc2c[nH]c3ccccc23)CC1)c1ccccc1` [INDORAMIN HYDROCHLORIDE]: the “IC50 of cell viability” value was greater than 46 µM. Turning to `O=C1CN=C(c2ccccc2)c2cc([N+](=O)[O-])ccc2N1` [nitrazepam], the “IC50 of cell viability” value is greater than 46 µM.

With `CCc1c(C)[nH]c2c1C(=O)[C@H](CN1CCOCC1)CC2` [Molindone hydrochloride], the “IC50 of cell viability” value is greater than 46 µM. On to `Cc1cccc(C)c1OCC(=O)N[C@@H](Cc1ccccc1)[C@@H](O)C[C@H](Cc1ccccc1)NC(=O)[C@H](C(C)C)N1CCCNC1=O` [LOPINAVIR], for which the “IC50 of cell viability” value is greater than 46 µM. Turning to `c1cnc(N2CCN(Cc3ccc4c(c3)OCO4)CC2)nc1` [PIRIBEDIL], the “IC50 of cell viability” value was greater than 46 µM.

For `Cc1oc(=O)oc1CN1CCN(c2cc3c(cc2F)c(=O)c(C(=O)O)c2n3C(C)S2)CC1` (stereo not drawn) [Prulifloxacin], the “IC50 of cell viability” value was greater than 46 µM.

In the case of `NC(=S)N[S+](=O)([O-])c1ccc(N)cc1` [SULFATOLAMIDE], the “IC50 of cell viability” value is greater than 46 µM. In the case of `CN1C(=O)CC(=O)N(c2ccccc2)c2cc(Cl)ccc21` [CLOBAZAM], the “IC50 of cell viability” value is greater than 46 µM. With `CO` [Methanol], the “IC50 of cell viability” value is greater than 46 µM. `CCCCCCC(=O)O[C@@H]1CC[C@H]2[C@@H]3CCc4cc(O)ccc4[C@H]3CC[C@]12C` [Estradiol enanthate]: the “IC50 of cell viability” value is greater than 46 µM.

Regarding `CCCC(CCC)C(=O)OC1C[C@H]2CC[C@@H](C1)[N+]2(C)C` (stereo partly drawn) [ANISOTROPINE METHYLBROMIDE], the “IC50 of cell viability” value is greater than 46 µM. With `CC1=C(/C=C/C(C)=C/C=C/C(C)=C/C(=O)O)C(C)(C)CCC1` [TRETINOIN], the “IC50 of cell viability” value was greater than 46 µM.

Turning to `O=C1O[C@H]([C@@H](O)CO)C(O)=C1O` [L-Ascorbic acid], the “IC50 of cell viability” value is greater than 46 µM. Consider `Cc1cc(C)c(NC(=O)C[C@H](CC(=O)[O-])c2cccc3ccccc23)c(C(=O)N2CCC3(CCCC3)CC2)c1.[Na+]` [CR 2945], for which the “IC50 of cell viability” value is greater than 46 µM. `CC[C@@]1(c2ccc(N)cc2)CCC(=O)NC1=O` [Glutethimide, para-amino]: the “IC50 of cell viability” value is greater than 46 µM. As for `C#CC[C@H](Cc1cnc2nc(N)nc(N)c2n1)c1ccc(C(=O)NC(CCC(=O)O)C(=O)O)cc1` (stereo partly drawn) [Pralatrexate], the “IC50 of cell viability” value was greater than 46 µM. Under `CC1(C)S[C@@H]2[C@H](N)C(=O)N2[C@@H]1C(=O)O` [6-AMINOPENICILLANIC ACID] stands greater than 46 µM; under `O=C(Nc1ccc(O)cc1)c1ccccc1O` [Osalmid], greater than 46 µM. Take `OCCN1CCN(CCCN2c3ccccc3Sc3ccc(Cl)cc32)CC1` [Perphenazine]: the “IC50 of cell viability” value was greater than 46 µM. Consider `O=CCCCC=O` [Glutaraldehyde (Glutaric dialdehyde)], for which the “IC50 of cell viability” value is greater than 46 µM. Under `Cl.COC1=C(C=CC=C1)N2CCN(CCCNC/3=C/C(=O)N(C)C(=O)N3C)CC2` [Urapidil hydrochloride] stands greater than 46 µM; under `CC(C)(C)c1ccc2c(S(=O)(=O)[O-])c(C(C)(C)C)ccc2c1` [Dibunic acid], greater than 46 µM; under `O=C([O-])/C=C/C(O)c1ccc(Cl)cc1.[Na+]` (stereo not drawn) [NCS-356], greater than 46 µM.

Turning to `O=C1CCc2cc(OCCCCc3nnnn3C3CCCCC3)ccc2N1` [CILOSTAZOL], the “IC50 of cell viability” value is greater than 46 µM. Consider `Nc1cc(C(Cl)=C(Cl)Cl)c([S+](N)(=O)[O-])cc1[S+](N)(=O)[O-]` [Clorsulon], for which the “IC50 of cell viability” value was greater than 46 µM.

For `Cc1ccccc1` [Toluene], the “IC50 of cell viability” value was greater than 46 µM. In the case of `CC(=O)Nc1ccccc1` [Acetanilide], the “IC50 of cell viability” value was greater than 46 µM.

Take `C[C@@H]1C[C@H]2[C@@H]3C[C@H](F)C/4=C/C(=O)/C=C\[C@]4(C)[C@@]3(F)[C@@H](O)C[C@]2(C)[C@@]1(O)C(=O)COC(=O)C(C)(C)C` [Flumethasone pivalate]: the “IC50 of cell viability” value is greater than 46 µM. Take `C[C@H]1[C@H]\2[C@H](O)[C@H]3[C@H](N(C)C)\C(=C(\C(N)=O)C(=O)[C@]3(O)\C(=C2C(=O)C4=C1C=CC=C4O)O)O` [Doxycycline hydrochloride]: the “IC50 of cell viability” value was greater than 46 µM. Turning to `OCCOc1ccccc1` [2-Phenoxyethanol], the “IC50 of cell viability” value was greater than 46 µM. Under `CC(C)=CC1C(C(=O)OC\2CC(=O)\C(=C2C)CC=C)C1(C)C` (stereo not drawn) [Allethrin] stands greater than 46 µM. With `CC1CNc2c(cccc2S(=O)(=O)NC(CCCNC(=N)N)C(=O)N2CC[C@@H](C)C[C@@H]2C(=O)O)C1` (stereo partly drawn) [ARGATROBAN], the “IC50 of cell viability” value is greater than 46 µM. The figure for `CC(=O)Nc1ccc(O)cc1` [Acetaminophen (4-hydroxyacetanilide)] is greater than 46 µM. For the compound `Cc1cnc(C(=O)NCCc2ccc([S+](=O)([O-])NC(=O)NC3CCCCC3)cc2)cn1` [GLIPIZIDE], the “IC50 of cell viability” value was greater than 46 µM. Under `C[C@]12C/C(=C/O)C(=O)C[C@@H]1CC[C@@H]1[C@@H]2CC[C@@]2(C)[C@H]1CC[C@]2(C)O` [Oxymetholone] stands greater than 46 µM; under `CC(=O)[O-].C[N+](C)(C)CCO` [Cholin acetate], greater than 46 µM. On to `OC(CCN1CCCCC1)(c1ccccc1)C1CC2C=CC1C2` (stereo not drawn) [Biperiden], for which the “IC50 of cell viability” value was greater than 46 µM. As to `Cc1ccc2c(c1)[C@]13CCCC[C@@H]1[C@@H](C2)N(C)CC3` [Dimemorfan phosphate], the “IC50 of cell viability” value is greater than 46 µM.

On to `COc1ccc(C(=O)CCC(=O)O)c2ccccc12` [Menbutone], for which the “IC50 of cell viability” value was greater than 46 µM.

In the case of `O=C(NNC[S+](=O)([O-])O)c1ccncc1` [ISONIAZID SODIUM METHANESULFONATE], the “IC50 of cell viability” value was greater than 46 µM.
